Several values for one entry are separate records, joined by “and”; a condition that tells them apart may be missing. Identical values can stand only once. Entries after “also recorded” stand apart in the source; their conditions may differ. Like-named read-outs stand apart in the source and are kept apart here. Ends that are not written are not given here.
Assays:
[1] = system: HIV; test: Multidose subcutaneous injection once daily for 14 days in HIV positive patients (Example 4); assay type: in vivo, human; conditions: 1-30 mg once daily
Protocol: Twenty-one subjects were divided into 5 groups, received pharmaceutical composition containing 1 mg, 5 mg, 10 mg, 20 mg, 30 mg FS-01 once daily, for 14 days. Determined the viral load before injection and after injection.

[2] = Pharmacokinetic study of single subcutaneous injection of pharmaceutical composition containing FS-01 in healthy volunteers; assay type: in vivo, human
Protocol: 3-period crossover Latin square design was employed, 12 subjects were randomly divided into three groups, four subjects per group, and were sequentially abdomenal and subcutaneously injected by pharmaceutical composition containing 10, 20, 30 mg of FS-01, doses are listed in Table 2. Blood samples were collected at 30-5 min pre-dose, 5, 15, 30 min, 1, 2, 4, 6, 8, 12, 24, 48 and 72 h after injection. The concentration of FS-01 in blood sample was quantitatively analyzed by LC\MS\MS.

[3] = system: HIV; test: Multidose subcutaneous injection once daily for 28 days in HIV positive patients (Example 5); assay type: in vivo, human; conditions: 10 mg and 20 mg once daily
Protocol: (§1) Nineteen HIV patients were divided into two groups, were subcutaneously injected with pharmaceutical composition containing 10 mg and 20 mg of FS-01 once daily, for 28 days. The data was analyzed together with that in Example 4.

[4] = Half-life of FS-01 in HIV patient; conditions: human, in vivo, subcutaneous, 20 mg
Protocol: as §1
It has been shown in the result that the pharmaceutical composition of the present invention has good safety profile. […] Plasma viral load in HIV infected patient with baseline less than <10,000 c/ml decreased by 1.2 log in 20 mg group 14 days after administration (see FIG. 3). And it is recommended for infected patient with baseline viral load more than 10,000 c/ml to receive combination treatment with other antiviral agents, such as antiretroviral inhibitors or protease inhibitors.

[5] = Pharmacokinetic study of single subcutaneous or intravenous injection of FS-01 in rhesus monkey; assay type: in vivo; conditions: 1.2 mg/kg
Protocol: Detailed experiment method as follows: three rhesus monkeys, crossover design, with a washout period of more than two weeks. Rhesus monkey was administrated 1.2 mg/kg of FS-01 by subcutaneously or intravenously injection, 1 ml of blood sample were collected at different point of time (0, 1, 5, 15, 30 min, 1, 2, 4, 6, 8, 12, 24 and 48 h). Drug concentration at different time point in blood sample was quantitatively analyzed by LC\MS\MS, utilizing iodine labeled FS-01 as internal standard, C18 column, aqueous solution containing 0.1% TFA and acetonitrile as mobile phase. Pharmacokinetics analysis was carried out according to fitting model based on the concentration of FS-01, determined the half-life (T1/2) in plasma, bioavailability and other pharmacokinetics parameters (FIG. 1).

[6] = system: HIV; conditions: HIV fusion assay; cited from earlier work
[7] = healthy volunteers, 10, 20, 30 mg
[8] = plasma, 24 h, read-out: C24 (plasma concentration at 24 h)

Substance | side effects [1] | clearance rate as dose increases [2, 7] | pharmacokinetic process (linearity) [2, 7] | plasma drug concentration after 72 hours ([2]; healthy volunteers, 72 hours after dosing) | Cmax ([2]; human, plasma, sc, 10 mg, healthy volunteers, 10 mg (low dose), single subcutaneous injection) | Cmax ([2]; human, plasma, sc, 20 mg, healthy volunteers, 20 mg (middle dose), single subcutaneous injection) | Cmax ([2]; human, plasma, sc, 30 mg, healthy volunteers, 30 mg (high dose), single subcutaneous injection) | half-life ([2]; human, plasma, sc, healthy volunteers, single subcutaneous injection) [h] | side effects / safety profile [3] | half-life [4] [h] | Tmax [5] [h-2 h] | Cmax ([5]; plasma) | level at 24 h [5, 8] [ng/mL] | level at time molar at 24 h [5, 8] [nM] | Tmax ([5]; plasma, read-out: Tmax) [h] | half-life ([5]; plasma, subcutaneous or intravenous injection) [h] | bioavailability ([5]; plasma, subcutaneous or intravenous injection, read-out: bioavailability (BA)) [%] | EC50 relative to T-20 [6] [times lower than T-20]
Ac-SWETWEREIENYTRQIYRILEESQEQQDRNERDLLE-NH2 [FS-01] | No signs of substantial side effects | did not slow down; also recorded: did not decrease | linear pattern; also recorded: linear relation | approaching baseline; also recorded: approached to baseline | 104 ng/mL and 22 nM | 213 ng/mL and 45.1 nM | 250 ng/mL and 52.9 nM | 20 ± 18.6 | No signs of substantial side effects | 39 | 0.25 | 508 ng/mL and 108 nM | > 9.8 | > 2.07 | 0.25 to 2 | 8.13 ± 3.1 | 50 | –
X-SWETWEREIENYTKQIYKILEESQEQQDRNEKDLLE-Z (not fully specified (N-terminus, C-terminus); printed as X-SWETWEREIENYTKQIYKILEESQEQQDRNEKDLLE-Z) | – | – | – | – | – | – | – | – | – | – | – | – | – | – | – | – | – | 20

Reference: US8603965B2, “Pharmaceutical composition for the prophylaxis and treatment of HIV infection and its use” (priority 2006, dated 2013)
